The values below are quoted from earlier work in patent US6417229B1, “α-sulfonylamino hydroxamic acid inhibitors of matrix metalloproteinases for the treatment of peripheral or central nervous system disorders” (Pfizer Inc, priority 1999, dated 2002).

Molecules are shown by their SMILES.

For data set [1], the system named is Experimental Autoimmune Neuritis (EAN). The settings on record: Redford et al. 1997.
Data set [2] concerns Experimental Autoimmune Encephelomyelitis (EAE). The settings on record: mice with EAE; Gijbels 1994.
The subject of data set [3] is MMP-9 induction by Aβ. The settings on record: rat microglia; Gottschall 1996.

Consider `C=CC[C@H](C(=O)NO)[C@@H](CC(C)C)C(=O)N[C@@H](Cc1ccccc1)C(=O)NC` [BB-1101], for which the “effect on EAN” value in data set [1] is reported as “attenuates Experimental Autoimmune Neuritis (EAN)”. For the compound `CNC(=O)[C@H](Cc1c[nH]c2ccccc12)NC(=O)[C@@H](CC(=O)NO)CC(C)C` [GM6001], the “effect on EAE” value in data set [2] was “suppress the development of, or reverse established, EAE”. Regarding `COc1ccc2c(c1)c(CC(=O)O)c(C)n2C(=O)c1ccc(Cl)cc1` [indomethacin], the “inhibition of MMP-9 induction by Aβ” value in data set [3] is listed as “can be inhibited”.
